Measurements as given in ChEMBL document CHEMBL2177014 (J Med Chem, 2012).
Counter-ions that a name gives are not always drawn.

Tests used:
[1] = target: Glutamate receptor ionotropic, NMDA 2B (Rattus norvegicus, UniProt Q00960); assay: Displacement of [3H]Ifenprodil from NMDAR-2B in Sprague-Dawley rat frontal cortex homogenates after 2 hrs by liquid scintillation counting; type: tissue-based
[2] = Displacement of [3H]MK-801 from NMDAR in Sprague-Dawley rat cerebral cortex homogenates after 2 hrs by liquid scintillation counting; type: tissue-based
Acetylcholinesterase = target: T1, Acetylcholinesterase (Rattus norvegicus, UniProt P37136); assay: biochemical
T1 sequence (P37136 whole entry): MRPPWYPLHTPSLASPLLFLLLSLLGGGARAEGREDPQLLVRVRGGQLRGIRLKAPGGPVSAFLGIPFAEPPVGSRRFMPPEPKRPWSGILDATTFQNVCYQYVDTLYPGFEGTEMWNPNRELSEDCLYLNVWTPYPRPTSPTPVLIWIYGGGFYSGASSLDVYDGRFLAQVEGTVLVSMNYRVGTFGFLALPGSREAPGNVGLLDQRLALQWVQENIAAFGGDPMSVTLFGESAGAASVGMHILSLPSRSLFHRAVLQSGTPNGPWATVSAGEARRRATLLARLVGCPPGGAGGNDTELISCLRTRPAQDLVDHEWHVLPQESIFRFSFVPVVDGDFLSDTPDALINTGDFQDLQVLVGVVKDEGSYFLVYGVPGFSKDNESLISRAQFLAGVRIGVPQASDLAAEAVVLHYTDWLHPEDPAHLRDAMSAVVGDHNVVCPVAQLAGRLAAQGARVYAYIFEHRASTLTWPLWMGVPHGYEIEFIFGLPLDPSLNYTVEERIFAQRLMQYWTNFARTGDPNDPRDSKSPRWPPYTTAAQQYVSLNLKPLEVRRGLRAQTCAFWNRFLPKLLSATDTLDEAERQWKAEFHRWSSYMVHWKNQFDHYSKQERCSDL
Description: Inhibition of AChE in Wistar rat brain homogenates using acetylthiocholine iodide and DTNB as substrate after 10 mins by Ellman method

[3] = Lipophilicity, log P of the compound; type: physicochemical; settings: octanol/water
SH-SY5Y = assay: Neuroprotective activity in human SH-SY5Y cells assessed as protection against NMDA-induced cell death after 6 hrs by MTS assay; type: functional, cell-based
[4] = target: T2, Acetylcholinesterase (Rattus norvegicus) (UniProt P37136); assay: Inhibition of AChE in Wistar rat brain homogenates using acetylthiocholine iodide and DTNB as substrate at 10 uM after 10 mins by Ellman method; type: tissue-based
T2 sequence (whole entry): T1 sequence (P37136 whole entry)

[5] = Binding affinity to NMDAR in Sprague-Dawley rat cerebral cortex homogenates; type: tissue-based
Rattus norvegicus = species on record: Rattus norvegicus; assay: Displacement of [3H]MK-801 from NMDAR in Sprague-Dawley rat cerebral cortex homogenates at 10 uM after 2 hrs by liquid scintillation counting; type: tissue-based

Glutamate receptor ionotropic, NMDA 2B, sequence (Q00960 whole entry): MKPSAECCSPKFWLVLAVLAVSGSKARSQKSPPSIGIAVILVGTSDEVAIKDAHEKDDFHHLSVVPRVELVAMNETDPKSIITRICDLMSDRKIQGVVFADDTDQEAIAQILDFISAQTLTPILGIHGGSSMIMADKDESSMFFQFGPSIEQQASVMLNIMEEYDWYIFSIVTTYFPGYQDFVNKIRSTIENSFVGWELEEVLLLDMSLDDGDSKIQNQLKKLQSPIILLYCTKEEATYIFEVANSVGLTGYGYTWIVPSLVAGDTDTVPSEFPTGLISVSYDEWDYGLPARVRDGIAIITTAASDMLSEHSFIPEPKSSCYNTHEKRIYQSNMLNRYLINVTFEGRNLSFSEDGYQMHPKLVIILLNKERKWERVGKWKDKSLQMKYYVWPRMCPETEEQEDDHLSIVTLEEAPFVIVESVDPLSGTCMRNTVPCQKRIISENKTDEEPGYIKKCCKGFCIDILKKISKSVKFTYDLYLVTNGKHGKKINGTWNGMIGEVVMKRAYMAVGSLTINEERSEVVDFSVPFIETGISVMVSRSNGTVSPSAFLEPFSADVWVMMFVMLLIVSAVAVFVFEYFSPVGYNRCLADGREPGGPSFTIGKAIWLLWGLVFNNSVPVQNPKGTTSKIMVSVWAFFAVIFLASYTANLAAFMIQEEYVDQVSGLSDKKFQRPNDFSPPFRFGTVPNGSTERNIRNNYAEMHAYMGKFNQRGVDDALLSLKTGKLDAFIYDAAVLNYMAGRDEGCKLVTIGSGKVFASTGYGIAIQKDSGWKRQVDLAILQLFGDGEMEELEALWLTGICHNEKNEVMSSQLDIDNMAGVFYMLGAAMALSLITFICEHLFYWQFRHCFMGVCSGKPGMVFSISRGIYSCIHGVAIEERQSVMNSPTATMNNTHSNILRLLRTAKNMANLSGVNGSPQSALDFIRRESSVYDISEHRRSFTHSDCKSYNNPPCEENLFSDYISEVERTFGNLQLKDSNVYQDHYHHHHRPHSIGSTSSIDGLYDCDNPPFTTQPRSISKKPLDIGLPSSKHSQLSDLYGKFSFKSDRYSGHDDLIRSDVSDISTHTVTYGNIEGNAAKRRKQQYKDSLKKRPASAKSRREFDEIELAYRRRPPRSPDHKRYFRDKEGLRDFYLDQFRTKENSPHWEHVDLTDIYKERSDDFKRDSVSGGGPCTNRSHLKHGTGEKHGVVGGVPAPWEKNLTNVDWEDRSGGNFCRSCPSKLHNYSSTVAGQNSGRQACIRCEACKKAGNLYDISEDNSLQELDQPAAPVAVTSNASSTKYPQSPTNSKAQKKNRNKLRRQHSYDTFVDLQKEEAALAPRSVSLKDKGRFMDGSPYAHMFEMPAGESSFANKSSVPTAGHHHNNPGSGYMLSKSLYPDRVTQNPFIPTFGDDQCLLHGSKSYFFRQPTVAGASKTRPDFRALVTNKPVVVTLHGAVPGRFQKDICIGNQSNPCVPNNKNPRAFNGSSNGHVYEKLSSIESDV

SMILES	Ki [1] [nM]	Ki [2] [nM]	IC50 (Acetylcholinesterase) [nM]	logP [3]	IC50 (SH-SY5Y) [nM]	inhibition [4] [%]	Kd [5] [nM]	inhibition (Rattus norvegicus) [%]
COc1ccc2c3c1O[C@H]1C[C@@H](O)C=C[C@@]31CCN(CCOCCNC13CC4CC(C)(CC(C)(C4)C1)C3)C2	> 100000	> 10000	3920	–	–	–	–	–
COc1ccc2c3c1O[C@H]1C[C@@H](O)C=C[C@@]31CCN(CCCCCCCCNC13CC4CC(C)(CC(C)(C4)C1)C3)C2	2900	4990	5.36	5.9	–	–	–	–
COc1ccc2c3c1O[C@H]1C[C@@H](O)C=C[C@@]31CCN(CCCCCCCN(C)C13CC4CC(C)(CC(C)(C4)C1)C3)C2	> 100000	> 10000	1.33	–	–	–	–	–
COc1ccc2c3c1O[C@H]1C[C@@H](O)C=C[C@@]31CCN(CCCNCCCNC13CC4CC(C)(CC(C)(C4)C1)C3)C2	3320	5410	168	–	–	–	–	–
COc1ccc2c3c1O[C@H]1C[C@@H](O)C=C[C@@]31CCN(CCCCCNC13CC4CC(C)(CC(C)(C4)C1)C3)C2	40900	> 10000	4.31	4.46	–	–	–	–
COc1ccc2c3c1O[C@H]1C[C@@H](O)C=C[C@@]31CCN(CCCCCCCCCNC13CC4CC(C)(CC(C)(C4)C1)C3)C2	> 100000	4630	2.32	6.38	–	–	–	–
COc1ccc2c3c1O[C@H]1C[C@@H](O)C=C[C@@]31CCN(CCCCNC13CC4CC(C)(CC(C)(C4)C1)C3)C2	> 100000	2320	696	3.98	–	–	–	–
CC(C(O)c1ccc(O)cc1)N1CCC(Cc2ccccc2)CC1 (configuration not stated) [IFENPRODIL]	–	3080	–	–	–	–	–	–
COc1ccc2c3c1O[C@H]1C[C@@H](O)C=C[C@@]31CCN(CCOCCOCCNC13CC4CC(C)(CC(C)(C4)C1)C3)C2	> 100000	> 10000	80.9	–	> 10000	–	–	–
COc1ccc2c3c1O[C@H]1C[C@@H](O)C=C[C@@]31CCN(CCCCC(=O)NC13CC4CC(C)(CC(C)(C4)C1)C3)C2	> 100000	> 10000	369	–	–	–	–	–
CC12CC3CC(C)(C1)CC(N)(C3)C2 [MEMANTINE]	–	1160	–	–	718	8.5	–	–
COc1ccc2c3c1O[C@H]1C[C@@H](O)C=C[C@@]31CCN(CCSCCNC13CC4CC(C)(CC(C)(C4)C1)C3)C2	> 100000	> 10000	131	–	–	–	–	–
COc1ccc2c3c1O[C@H]1C[C@@H](O)C=C[C@@]31CCN(CCCC(=O)NC13CC4CC(C)(CC(C)(C4)C1)C3)C2	> 100000	> 10000	55.7	–	–	–	–	–
COc1ccc2c3c1O[C@H]1C[C@@H](O)C=C[C@@]31CCN(CCCCCCN(C)C13CC4CC(C)(CC(C)(C4)C1)C3)C2	5250	> 10000	1.03	–	–	–	–	–
C[C@]12N[C@H](Cc3ccccc31)c1ccccc12 [DIZOCILPINE MALEATE]	–	–	–	–	7.91	–	4	–
COc1ccc2c3c1O[C@H]1C[C@@H](O)C=C[C@@]31CCN(CCCCCCNC13CC4CC(C)(CC(C)(C4)C1)C3)C2 [MEMAGAL]	4600	4600	1.16	4.94	0.28	–	–	–
COc1ccc2c3c1O[C@H]1C[C@@H](O)C=C[C@@]31CCN(C)C2 [GALANTAMINE]	> 100000	> 10000	–	–	747	–	–	–
COc1ccc2c3c1O[C@H]1C[C@@H](O)C=C[C@@]31CCN(CCCCCCCNC13CC4CC(C)(CC(C)(C4)C1)C3)C2	11000	10000	1.79	5.42	0.21	–	–	–
COc1ccc2c3c1O[C@H]1C[C@@H](O)C=C[C@@]31CCN(CCCCCC(=O)NC13CC4CC(C)(CC(C)(C4)C1)C3)C2	9760	–	11.3	–	0.37	–	–	33.9
COc1ccc2c3c1O[C@H]1C[C@@H](O)C=C[C@@]31CCN(CCCCCCCCN(C)C13CC4CC(C)(CC(C)(C4)C1)C3)C2	> 100000	> 10000	0.52	–	–	–	–	–
